The record followed here is publication PMC6099706, “Anti-Mycobacterium tuberculosis Activity of Esters of Quinoxaline 1,4-Di-N-Oxide” (Molecules : A Journal of Synthetic Chemistry and Natural …, 2018).

As a reminder, the CC50 is the concentration at which the toxic effect on the cells reaches its halfway point. A low value points to harm at low concentration.

In brackets after ≈: the same amount, converted by molar mass. Some results are limits rather than exact numbers.

The subject of series [1] is M. tb H37Rv. Briefly: MIC on M. tb H37Rv (Table 4 panel). The class given is cell-based. To be noted: Mycobacterium tuberculosis.
For series [2], the system named is M. avium. The experiment in a line: MIC on nontuberculous Mycobacterium clinical isolate. The class given is cell-based.
The test system of series [3] is M. chelonae. The series is described as above. To be noted: Mycobacteroides chelonae. The class given is cell-based.
Series [4] concerns M. abscessus. The description is as above. Format: cell-based. To be noted: Mycobacteroides abscessus.
For series [5], the system named is Mycobacterium tuberculosis strain H37Rv. The experiment in a line: microplate Alamar blue assay (MABA). Format: cell-based. The conditions noted are these: Mycobacterium tuberculosis, H37RV, M. tuberculosis H37Rv; lowest concentration effecting 90% inhibition. In general terms: Alamar Blue is a resazurin reagent that responds to reducing activity.
Series [6] relates to mouse macrophage cell line J774A.1. The experiment in a line: cytotoxicity on macrophages (Alamar blue) and selectivity index. To be noted: ratio of CC50 on J774A.1 and MIC against M. tuberculosis H37Rv. Format: cell-based. The protocol: (§1) The determination of the half maximal cytotoxicity concentration (CC50) of the compounds T-006, T-011, T-018, T-022, T-069, T-085, T-088, and T-089 was carried out on the mouse macrophage cell line J774A.1 (ATCC TIB-67). Briefly, cell monolayers were prepared in 96-well plates with 10,000 cells per well in Ham’s F-12 medium supplemented with 10% Fetal bovine serum (FBS, By products, Guadalajara, Mexico) and antibiotics (penicillin and gentamicin). Five concentrations from 100 to 0.5 μg/mL of each of the compounds were tested. The cells were incubated for a period of 6 h (^−) or 96 h (^+). Before completing this period, 20 μL of Alamar blue solution was added to each well, quantifying the relative fluorescence units in a fluorometer (Fluoroskan Ascent FL, Labsystems). The percentage of cytotoxicity at each concentration was determined by comparing the values against the control of cells without treatment. The CC50 was determined with the Probit regression analysis (MedCalc Statistical Software version 18.5, Ostend, Belgium). Selectivity index was calculated as the ratio of the CC50 on the macrophage cell line J774A.1 and the MIC value against M. tuberculosis strain H37Rv.

Assay in series [7]: as above
The class given is cell-based, mouse. To be noted: mouse, J774A.1 macrophage cells; for CC50 at 6 h: cytotoxicity on macrophage cell J774A.1 at 6 h; for CC50 at 96 h: cytotoxicity on macrophage cell J774A.1 at 96 h. As for the experimental part:
as §1

The test system of series [8] is nonreplicating persistent (NRP) M. tuberculosis strain. Briefly: microbe, parasite or virus in culture. Format: cell-based, Mycobacterium tuberculosis. To be noted: Mycobacterium tuberculosis; nonreplicating persistent strain; read-out: LORA MIC.
Series [9] deals with M. smegmatis. Briefly: MIC on nontuberculous Mycobacterium clinical isolate. The class given is cell-based. The conditions noted are these: Mycolicibacterium smegmatis.
The target of series [10] is M. tuberculosis gyrase (GyrA and Gyr B subunits) (Mycobacterium tuberculosis, UniProt P9WG45+P9WG47). The experiment in a line: M. tuberculosis gyrase supercoiling assay. Format: biochemical. To be noted: at 50 μM. The protocol: The activity of the enzyme was determined prior to the testing of the quinoxaline 1,4-di-N-oxide derivatives and 1 U was defined as the amount of enzyme required to just fully supercoil the substrate under test conditions. Compounds were tested at 50 μM. Final DMSO concentration in the assays was 1% (v/v).
Chain of M. tuberculosis gyrase (GyrA and Gyr B subunits) (P9WG45 whole entry): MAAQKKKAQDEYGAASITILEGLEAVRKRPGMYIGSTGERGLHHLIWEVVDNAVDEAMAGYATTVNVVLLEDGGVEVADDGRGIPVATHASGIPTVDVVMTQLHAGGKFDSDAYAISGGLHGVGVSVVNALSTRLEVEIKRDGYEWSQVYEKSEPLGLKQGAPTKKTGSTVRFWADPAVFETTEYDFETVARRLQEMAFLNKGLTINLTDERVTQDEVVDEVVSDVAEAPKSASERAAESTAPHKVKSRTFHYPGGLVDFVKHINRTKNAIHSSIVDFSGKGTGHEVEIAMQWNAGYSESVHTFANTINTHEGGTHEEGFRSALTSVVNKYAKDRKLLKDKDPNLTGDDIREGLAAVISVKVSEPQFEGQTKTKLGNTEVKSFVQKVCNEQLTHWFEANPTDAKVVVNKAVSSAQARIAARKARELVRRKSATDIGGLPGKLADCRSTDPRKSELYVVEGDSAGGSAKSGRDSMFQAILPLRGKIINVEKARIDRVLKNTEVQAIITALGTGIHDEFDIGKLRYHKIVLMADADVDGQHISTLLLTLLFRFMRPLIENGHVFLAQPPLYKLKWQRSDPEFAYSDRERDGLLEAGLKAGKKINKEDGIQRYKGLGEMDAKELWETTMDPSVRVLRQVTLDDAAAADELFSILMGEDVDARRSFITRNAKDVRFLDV
Chain of M. tuberculosis gyrase (GyrA and Gyr B subunits) (P9WG47 whole entry): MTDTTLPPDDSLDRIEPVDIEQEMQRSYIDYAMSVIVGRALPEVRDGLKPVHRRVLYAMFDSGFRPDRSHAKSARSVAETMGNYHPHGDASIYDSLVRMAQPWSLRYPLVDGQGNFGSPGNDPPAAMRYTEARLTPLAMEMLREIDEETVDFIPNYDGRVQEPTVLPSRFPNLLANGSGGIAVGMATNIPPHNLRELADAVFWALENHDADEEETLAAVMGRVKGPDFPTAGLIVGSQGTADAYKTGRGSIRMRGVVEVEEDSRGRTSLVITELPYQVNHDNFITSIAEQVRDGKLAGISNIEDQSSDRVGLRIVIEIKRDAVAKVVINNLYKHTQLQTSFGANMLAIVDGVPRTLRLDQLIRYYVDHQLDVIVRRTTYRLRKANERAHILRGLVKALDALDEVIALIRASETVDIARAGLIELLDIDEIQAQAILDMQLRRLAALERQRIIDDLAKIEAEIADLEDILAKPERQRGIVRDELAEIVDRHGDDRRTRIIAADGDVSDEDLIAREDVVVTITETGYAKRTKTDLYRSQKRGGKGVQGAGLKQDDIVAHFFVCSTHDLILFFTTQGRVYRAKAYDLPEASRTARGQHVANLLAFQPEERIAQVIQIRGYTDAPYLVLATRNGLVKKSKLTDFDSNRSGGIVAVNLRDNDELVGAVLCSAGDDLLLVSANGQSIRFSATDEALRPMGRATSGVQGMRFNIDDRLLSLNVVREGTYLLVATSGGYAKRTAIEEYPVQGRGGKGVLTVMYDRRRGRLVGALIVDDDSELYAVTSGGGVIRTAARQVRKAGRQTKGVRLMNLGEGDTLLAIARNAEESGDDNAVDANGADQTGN
1 U of M. tuberculosis gyrase (GyrA and Gyr B subunits) (final concentration in assay 50 nM) was incubated with 0.5 μg of relaxed pBR322 DNA in a 30 μL reaction at 37 °C for 30 min under the following conditions: 50 mM HEPES. KOH (pH 7.9), 6 mM magnesium acetate, 4 mM DTT, 1 mM ATP, 100 mM potassium glutamate, 2 mM spermidine and 0.05 mg/mL albumin.
Each reaction was stopped by the addition of 30 μL chloroform/iso-amyl alcohol (26:1) and 20 μL Stop Dye (40% sucrose, 100 mM Tris.HCl (pH 7.5), 10 mM EDTA, 0.5 μg/mL bromophenol blue), before being loaded on a 1.0% TAE (Tris.acetate […], EDTA […]) gel run at 80 V for 2 h.
Bands were visualized by ethidium staining for 10 min, destained for 10 min in water, analyzed by gel documentation equipment (Syngene, Cambridge, UK), and quantified using Syngene software (Genetools version 4.00 (1997–1998), Syngene, A division of Synoptics Corp, Cambridge, UK).
Raw gel data (fluorescent band volumes) collected from Syngene’s GeneTools gel analysis software were converted to a % of the 100% control (the supercoiled enzyme plus DMSO control DNA band). These were analyzed using SigmaPlot Version 13.0 (Systat Software Inc., London, UK; 2016).

In series [11] the test system is M. fortuitum. The experiment in a line: MIC on nontuberculous Mycobacterium clinical isolate. The conditions noted are these: Mycolicibacterium fortuitum. The class given is cell-based.
Series [12] is described as follows: stability in human plasma by UPLC-MS. Format: in vitro ADME. To be noted: 37 °C, 24 h. The protocol:
Compounds T-018 and T-069 were selected to analyze their stability in human plasma. A total of 1 mg of each of the two compounds was dissolved in 1 mL of dichlorometane. Then, 0.1 mL was added to 0.9 mL of 0.1% formic acid in acetonitrile for analysis by UPLC with an ACQUITY QDa mass detector from Waters (Milford, MA, USA) under the following conditions: column: ACQUITY UPLC® BEH C18 1.7 µm, 2.1 × 100 mm; mobile phase: 0.1% formic acid/acetonitrile; run time: 5 min; flow rate: 0.3 mL/min; injection volume: 0.5 µL; temperature: 40 °C. After that, 3 mL of human plasma was obtained from a volunteer under medical supervision and following the standard procedures. Then, 1 mg of T-018 and T-069 were dissolved with DMSO 2% and added to 1 mL of human plasma. Samples were incubated at 37 °C for 12 and 24 h. T-018 and T-069 were obtained by liquid extraction with dichloromethane (10 mL) three times and the solvent was eliminated for vacuum pressure. After that, 1 mL of dichlorometane was added and 0.1 mL was added to 0.9 mL of 0.1% formic acid in acetonitrile and analyzed by UPLC-MS. Percentage of degradation was calculated considering the area under the curve of each peak/the area under the curve of all peaks × 100% at 24 h only.

As to `COC(=O)c1ccc2c(c1)[n+]([O-])c(C(=O)c1ccccc1)c(C(F)(F)F)[n+]2[O-]` [Compound T-018], the MIC in series [1] was 1 µg/mL (≈ 2.55 µM); in series [2], 2.5 µg/mL (≈ 6.37 µM); in series [3], greater than 10 µg/mL; in series [4], 5 µg/mL (≈ 12.7 µM); in series [5] it was no more than 0.15 µg/mL; in series [8], 0.34 µg/mL (≈ 0.867 µM). The MIC is 2.5 µg/mL (≈ 6.37 µM) in series [9] and greater than 10 µg/mL in [11]. In series [6], the “SI (selectivity index)” value amounted to 35.37. The compound further displayed a CC50 at 6 h in [7] of 35.4 µg/mL (≈ 90.2 µM). In addition, the “inhibitory effect on M. tuberculosis gyrase supercoiling” value (“inhibitory effect” for short) in series [10] was “none of the compounds showed an inhibitory effect”.

Turning to `CCCOC(=O)c1ccc2c(c1)[n+]([O-])c(C(=O)OC)c(C)[n+]2[O-]` [Compound T-088], the MIC in [1] is 0.5 µg/mL (≈ 1.56 µM); in series [2], greater than 10 µg/mL; in series [3], greater than 10 µg/mL; in [4], greater than 10 µg/mL; in [5], no more than 0.15 µg/mL; in series [8], 0.27 µg/mL (≈ 0.843 µM). Further, the MIC in series [9] is 2.5 µg/mL (≈ 7.81 µM); in series [11], greater than 10 µg/mL. Moreover, the “SI (selectivity index)” value in [6] was determined as 73.02. The CC50 at 96 h in [7] was found to be 36.5 µg/mL (≈ 114 µM).

As for `CO[C@H]1/C=C/O[C@@]2(C)Oc3c(C)c(O)c4c(O)c(c(/C=N/N5CCN(C)CC5)c(O)c4c3C2=O)NC(=O)/C(C)=C\C=C\[C@H](C)[C@H](O)[C@@H](C)[C@@H](O)[C@@H](C)[C@H](OC(C)=O)[C@@H]1C` [RMP, rifampicin, reference compound], the values for the MIC in [1], in series [5] and in [8] were less than 0.06 µg/mL, 0.03 µg/mL (≈ 0.0365 µM) and 0.89 µg/mL (≈ 1.08 µM), respectively.

Take `CCOC(=O)c1ccc2c(c1)[n+]([O-])c(C(=O)c1cccs1)c(C(F)(F)F)[n+]2[O-]` [Compound T-011]: the MIC in series [1] was 0.5 µg/mL (≈ 1.21 µM); in [2], less than 0.31 µg/mL; in series [3], greater than 10 µg/mL; in series [4], greater than 10 µg/mL; in series [5], no more than 0.15 µg/mL; in series [8] it was 0.21 µg/mL (≈ 0.509 µM). Besides, the MIC in series [9] came to 0.62 µg/mL (≈ 1.5 µM); in series [11], 2.5 µg/mL (≈ 6.06 µM). Further, the “SI (selectivity index)” value in series [6] was 3.34. It took 1.67 µg/mL (≈ 4.05 µM) to reach half-maximal cytotoxicity in [7] (CC50 at 6 h). In addition, the “inhibitory effect” value in series [10] is on record as “none of the compounds showed an inhibitory effect”.

With `COC(=O)c1ccc2c(c1)[n+]([O-])c(C(=O)OC)c(C)[n+]2[O-]` [Compound T-022], the MIC in series [1] is 0.5 µg/mL (≈ 1.71 µM); in [2], 2.5 µg/mL (≈ 8.55 µM); in series [3] it was 2.5 µg/mL (≈ 8.55 µM); in series [4], greater than 10 µg/mL; in series [5], 0.29 µg/mL (≈ 0.992 µM); in [8], 0.56 µg/mL (≈ 1.92 µM). The MIC was 0.62 µg/mL (≈ 2.12 µM) in series [9] and 2.5 µg/mL (≈ 8.55 µM) in [11]. The CC50 at 96 h in series [7] came out at 86.2 µg/mL (≈ 295 µM).

Consider `CCCOC(=O)c1ccc2c(c1)[n+]([O-])c(C(=O)c1cccs1)c(C(F)(F)F)[n+]2[O-]` [Compound T-089], for which the MIC is 0.5 µg/mL (≈ 1.17 µM) in [1]; 0.62 µg/mL (≈ 1.45 µM) in series [2]; greater than 10 µg/mL in series [3]; greater than 10 µg/mL in series [4]; 0.12 µg/mL (≈ 0.281 µM) in series [5]; 0.15 µg/mL (≈ 0.352 µM) in series [8]. Further, the MIC in [9] and in series [11] was greater than 10 µg/mL in each case. In addition, the “SI (selectivity index)” value in [6] came out at 48.54. Also, in [7], the CC50 at 6 h was 24.3 µg/mL (≈ 56.9 µM).

As for `CCOC(=O)c1ccc2c(c1)[n+]([O-])c(C(C)=O)c(C(F)(F)F)[n+]2[O-]` [Compound T-006], the MIC was 2 µg/mL (≈ 5.81 µM) in [1]; 2.5 µg/mL (≈ 7.26 µM) in series [2]; greater than 10 µg/mL in [3]; greater than 10 µg/mL in [4]; 0.29 µg/mL (≈ 0.842 µM) in [5]; 0.42 µg/mL (≈ 1.22 µM) in series [8]. In addition, the MIC in series [9] and in [11] was greater than 10 µg/mL in each case. The “SI (selectivity index)” value in series [6] was greater than 50. Moreover, the CC50 at 96 h in series [7] is greater than 100 µg/mL.

In the case of `CC(C)OC(=O)c1ccc2c(c1)[n+]([O-])c(C(=O)C(C)C)c(C(F)(F)F)[n+]2[O-]` [Compound T-085], the MIC in [1] was 1 µg/mL (≈ 2.59 µM); in [2] it was 0.62 µg/mL (≈ 1.6 µM); in series [3], 5 µg/mL (≈ 12.9 µM); in [4] it was 2.5 µg/mL (≈ 6.47 µM); in series [5] it was no more than 0.15 µg/mL; in series [8] it was 0.13 µg/mL (≈ 0.337 µM). Moreover, the MIC was 1.25 µg/mL (≈ 3.24 µM) in [9] and 2.5 µg/mL (≈ 6.47 µM) in series [11]. Further, the “SI (selectivity index)” value in series [6] amounted to 45.42. The compound also displayed a CC50 at 6 h in [7] of 45.4 µg/mL (≈ 118 µM).

Take `CC(C)OC(=O)c1ccc2c(c1)[n+]([O-])c(C(=O)c1cccs1)c(C(F)(F)F)[n+]2[O-]` [Compound T-069]: in series [12], the “stability in human plasma” value was “high stability”. Moreover, the MIC is 1 µg/mL (≈ 2.35 µM) in [1]; 5 µg/mL (≈ 11.7 µM) in series [2]; 2.5 µg/mL (≈ 5.86 µM) in series [3]; greater than 10 µg/mL in series [4]; no more than 0.15 µg/mL in series [5]; 0.23 µg/mL (≈ 0.539 µM) in series [8]. In addition, the MIC in [9] and in series [11] was greater than 10 µg/mL in each case. Also, the “SI (selectivity index)” value in series [6] was 41.26. This compound gave a CC50 at 6 h in [7] of 41.3 µg/mL (≈ 96.8 µM). Moreover, the “inhibitory effect” value in [10] is on record as “none of the compounds showed an inhibitory effect”.
